# Measured values from patent US7713914B2 (priority 2005, dated 2010).
# Assays:
# Bacillus cereus spores = format: cell-based
# [1] = Solubility of DPA in water; format: physicochemical
# [2] = tested on: Bacillus anthracis endospores
smiles,measurement,setting,value
"CCCCCCCCCCCCN [DDA, dodecylamine, reference compound]",Exposure required before a reasonable DPA SERS signal was observed,Bacillus cereus spores,1 h
"O=C(O)c1cccc(C(=O)O)n1 [DPA, dipicolinic acid]",Solubility in water,[1],only slightly soluble
O=CO [formic acid],SERS of DPA (CaDPA release at room temperature),Bacillus cereus spores,observed
"CC(=O)O [glacial acetic acid, acetic acid]",DPA concentration calculated from 1008 cm-1 peak,"[2]; Example 1, hypothetical 1000 spores, 50 microL, 1 minute",20±10 ng per 1 mL
same,"Time in which most, if not all, of the CaDPA is released",[2]; acid dispensed onto surface,1 to 5 min
CC(O)C(=O)O (stereo not shown) [lactic acid],SERS of DPA (CaDPA release at room temperature),Bacillus cereus spores,observed
O=C(O)C(F)(F)F [trifluoroacetic acid],SERS of DPA (CaDPA release at room temperature),Bacillus cereus spores,observed
